Assays:
[1] = system: tau pathology in human AD slices; assay: [18F]Co. No. 1 binding to human AD tissue in the presence of MAO binders; settings: 0.2 mCi/mL tracer; for effect on [18F]Co. No. 1 binding pattern in human AD slices: compound 10 μM
Procedure: c) Binding of [^18F] Co. No. 1 to human AD tissue was assessed in the presence of reported MAO binders. […] This binding pattern was maintained when the sample was incubated with 10 μM of clorgiline, a strong irreversible MAO binder with moderate selectivity for the A-subtype (FIG. 7B), or 10 μM selegiline (=deprenyl), a strong irreversible MAO-B binder (FIG. 7C). The binding of [^18F] […] Adjacent AD slices were immunostained with anti-tau (AT8) and anti-Aβ (4G8) antibodies to correlate with [^18F]Co. No. 1 binding (FIG. 8).

[2] = system: MAO; assay: in vitro binding of tritiated tracers to MAO-rich human tissue (striatum); settings: cold compound 10 μM; 10 nM [3H]-THK-5351
Procedure: The tracer was tested at 10 nM and higher concentrations were not investigated in this study.
In comparison, the tau tracer [^3H]-THK-5351 and the Aβ tracer [^3H]-AV-45 were used as THK-5351 is known to also bind MAO.

[3] = target: extracted human tau aggregates (Homo sapiens, UniProt P10636); assay: competitive radioligand binding assay, [3H]-T808 displacement
Sequence of extracted human tau aggregates (P10636 623-695 limits assumed): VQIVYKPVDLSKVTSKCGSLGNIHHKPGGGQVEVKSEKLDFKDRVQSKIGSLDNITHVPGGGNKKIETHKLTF
Procedure: Briefly, frozen human AD brain samples (˜10 g) were homogenized with 10 vol of cold homogenization buffer (10 mM Tris, 800 mM NaCl, 1 mM EGTA, 10% sucrose, pH 7.4 containing PhosSTOP phosphatase and cOmplete EDTA-free protease inhibitor (Roche, Vilvoorde, Belgium)) on ice. After centrifugation at 27 000×g for 20 min at 4° C. the supernatant was recovered and 1% (w/v) N-lauroylsarcosine and 1% (v/v) 2-mercaptoethanol were added. The N-lauroylsarcosine/2-mercaptoethanol supernatant was incubated for 2 h at 37° C. while shaking on an orbital shaker. Subsequently, ultracentrifugation at 108 000×g for 1.5 h at room temperature enriched aggregated tau in the pellet. Supernatant was removed and the pellet was carefully rinsed twice with a small amount of TBS (50 mM Tris, 150 mM NaCl, pH 7.4). […]
Briefly, aggregated tau preps were diluted to 100 μg protein/mi in PBS buffer with 5% ethanol. […] After overnight drying of the filter plate, Microscint O liquid (Perkin Elmer) was added and the amount of radiolabeled ligand bound to the fibrils is measured by liquid scintillation counting in a Topcount instrument (Packard Instrument Company, Connecticut, USA).
(§1) Values for half-maximal inhibitory concentration (IC50) were determined from displacement curves of at least two independent experiments using GraphPad Prism software (GraphPad Software, San Diego, CA).

[4] = target: T1, extracted human amyloid-beta aggregates (Homo sapiens, UniProt P05067); assay: competitive radioligand binding assay, [3H]-AV-45 displacement
T1 construct: amyloid plaques which form by aggregation of beta-amyloid peptide; from tissue; host or cells: human AD brain, occipital cortex with high amyloid plaque load
T1 sequence (P05067 672-713 limits assumed): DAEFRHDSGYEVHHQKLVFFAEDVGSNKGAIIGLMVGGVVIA
Procedure: Enriched aggregated β-amyloid preps were prepared from frozen human AD brain samples (10 g—occipital cortex with high amyloid plaques load) that were homogenized with 7-fold vol of cold homogenization buffer (250 mM sucrose, 20 mM Tris base, 1 mM EDTA, 1 mM EGTA and PhosSTOP phosphatase and cOmplete EDTA-free protease inhibitor) on ice. After centrifugation at 27 000×g for 20 min at 4° C. cell debris was removed. Supernatant containing amyloid plaques was aliquoted and stored at −80° C.
The competitive radioligand binding assays measure the binding of a radiolabeled reference ligand in the presence of a dose response concentration range of test compounds.
as §1
To determine compound binding to aggregated β-amyloid a similar assay was put in place but with some minor modifications. […] Nonspecific binding was determined in the presence of 500 μM Thioflavin T. After 150 min incubation at room temperature, the binding mixtures were filtered over GF/B glass filters. […]

[5] = system: NFTs / cortical tau-rich regions; assay: digital autoradiography with [18F]Co. No. 1 on human AD visual cortex slices, with blocking; assay type: binding; settings: for inhibition of [18F]Co. No. 1 binding: blocker 1 μM, human AD visual cortex slices
Procedure: Adjacent slices were immunostained for tau pathology (B, AT8) and for amyloid beta pathology (C, 4G8).
a) Air-dried frozen, 10-μm-thick slices of the visual cortex of an AD-patient (with Braak stage V-VI) were incubated for 60 min with [^18F]Co. No. 1 (7.4 kBq/500 μL per slice) and subsequently washed with mixtures of PBS and ethanol as described elsewhere (Xia C. F., Arteaga J., Chen G., et al. Alzheimer's Dement. 2013, 1-11). To assess specificity of binding, slices were incubated with tracer in the presence of 1 μM of authentic T808 or Co. No. 1. After drying, slices were exposed to a phosphor storage screen (super-resolution screen, Perkin Elmer). Screens were read in a Cyclone Plus system (Perkin Elmer, Waltham, MA, U.S.A.) and analyzed using Optiquant software. Results are expressed as digital light units per square mm (DLU/mm^2). Adjacent AD slices were immunostained with anti-tau (AT8) and anti-Aβ antibodies (4G8), to correlate with [^18F]Co. No. 1 binding.

[6] = microPET imaging, rhesus monkey; assay type: in vivo, rhesus monkey (Macaca mulatta); settings: baseline scan; for initial brain uptake, SUV value: total brain, IV 185 MBq
Procedure: A dynamic 120-min μPET scan with [^18F]Co. No. 1 or [^18F]T807 was performed with a Focus 220 μPET scanner on a rhesus monkey (6 y-old male Macaca mulatta, 7.6 kg), that was sedated with ketamine (Ketalar®) and xylazine (Rompun®) via intramuscular (IM) injection. During scanning the monkey received repeatedly an additional dose of ketamine/xylazine via IV injection. O2 saturation in blood, breathing frequency and heartbeat frequency were monitored during the entire experiment. The head of the animal was placed central in the field of view of the μPET scanner. Scans were acquired in list mode and Fourier rebinned in 24 time frames (4×15 s, 4×60 s, 5×180 s, 8×300 s, 3×600 s). Data were reconstructed using a 3D maximum a posteriori (3D-MAP) iterative reconstruction. TACs of the whole brain were generated using VOIs with PMOD software. Radioactivity concentration in the brain is expressed as SUV as a function of time after tracer injection. Scans were started immediately after IV injection of 185 MBq of [^18F]Co. No. 1 or [^18F]T807 via the vena saphena of the right leg. For the pre-treatment study, cold reference compound Co. No. 1 was dissolved in a mixture of 10% DMSO and 40% (2-hydroxypropyl)-o-cyclodextrin, filtered through a 0.22-μm membrane filter (Millex-GV, Millipore) prior to injection. Pre-treatment (n=1) was done by IV co-injection of 1 mg/kg of cold Co. No. 1 and radiotracer solution. μPET images were compared to a baseline scan (n=1), acquired in the non-treated monkey.

[7] = microPET imaging, Wistar rats; assay type: in vivo, Wistar rat; settings: for SUV value at 60 min p.i. (brain wash-out) / initial brain uptake, high intensity SUV value in the brain: baseline scan, whole brain; for initial brain uptake, high intensity SUV value in the brain: IV about 50 MBq; for effect of pre-treatment / chase with cold compound on brain uptake: pre-treatment 10 mg/kg SC 60 min before, chase 1 mg/kg IV 30 min after tracer
Procedure: Three separate studies are shown: a baseline scan (only tracer), a pre-treatment experiment (cold Co. No. 1 or T807, 10 mg/kg injected subcutaneously 60 min prior to radiotracer injection), and a chase study (cold Co. No. 1 or T807, 1 mg/kg injected intravenously 30 min after radiotracer injection).
A dynamic 120-min μPET scan with [^18F]Co. No. 1 or [^18F]T807 was acquired on a Focus 220 μPET scanner (Concorde Microsystems, Knoxville, TN, U.S.A.) on three female Wistar rats simultaneously. The rats were kept under gas anaesthesia during the whole procedure (2.5% isoflurane in O2 at 1 L/min flow rate). Scans were acquired in list mode and acquisition data were Fourier rebinned in 24 time frames (4×15 s, 4×60 s, 5×180 s, 8×300 s, 3×600 s). Data, which were 3D maximum a posteriori (3D-MAP) reconstructed, were manually aligned with a rat brain ^18F-FDG template in Paxinos coordinates using an affine transformation, to allow predefined volumes of interest (VOIs) analysis (Casteels C., et al. J. Nucl. Med. 2006, 47, 1858-1866). Time-activity curves (TACs) of the whole brain were generated using VOIs with PMOD software (v 3.2, PMOD Technologies, Zürich, Switzerland). Radioactivity concentration in the brain was expressed as standardized uptake value (SUV, calculated as (radioactivity in Bq in brain/mL)/(total injected dose (Bq)/body weight in g)) as a function of time after tracer injection. Scans were started immediately after IV injection of about 50 MBq radiotracer (n=3/tracer). For pre-treatment and displacement studies, cold reference compound Co. No. 1 or T807 was dissolved in a mixture of 5% DMSO, 5% Tween 80 and 40% (2-hydroxypropyl)-β-cyclodextrin, filtered through a 0.22-μm membrane filter (Millex-GV. Millipore) prior to injection. Pre-treatment (n=1) was done by subcutaneous (SC) injection of 10 mg/kg of Co. No. 1 or T807, 60 min prior to radiotracer injection. Displacement (n=1) was performed by IV injection of 1 mg/kg Co. No. 1 or T807 30 min after radiotracer injection. μPET images were compared to a baseline scan (n=1), acquired in a non-treated rat.

[8] = target: aggregated tau (Homo sapiens, UniProt P10636); settings: literature; cited from earlier work
Sequence of aggregated tau (P10636 1-441 isoform P10636-8): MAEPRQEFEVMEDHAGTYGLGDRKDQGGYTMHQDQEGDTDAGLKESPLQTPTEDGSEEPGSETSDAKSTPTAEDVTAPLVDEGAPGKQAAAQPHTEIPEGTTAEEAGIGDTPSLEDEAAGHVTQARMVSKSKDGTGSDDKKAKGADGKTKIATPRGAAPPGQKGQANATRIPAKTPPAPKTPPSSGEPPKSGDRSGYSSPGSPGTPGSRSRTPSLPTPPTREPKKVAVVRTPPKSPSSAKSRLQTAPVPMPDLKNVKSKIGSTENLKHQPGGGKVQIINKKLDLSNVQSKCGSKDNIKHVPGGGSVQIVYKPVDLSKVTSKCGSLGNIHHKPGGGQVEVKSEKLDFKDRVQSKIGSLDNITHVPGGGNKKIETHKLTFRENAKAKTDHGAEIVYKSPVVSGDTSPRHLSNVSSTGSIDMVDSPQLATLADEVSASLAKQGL

C#CCN(C)[C@H](C)Cc1ccccc1 [selegiline, reference compound]
effect on [18F]Co. No. 1 binding pattern in human AD slices [1]: maintained

Cc1cnc(Nc2ccc3cnccc3c2)cc1F [Co. No. 1]
melting point: 182.53 °C
blocking of [3H]-THK-5351 binding to MAO-rich human tissue [2]: blocked
IC50 ([3]; displacement of [3H]-T808 (10 nM), read-out: pIC50, binding to extracted human tau aggregates (converted)): 5.75 nM
Ki ([3]; displacement of [3H]-T808, read-out: Ki corresponding to pIC50, extracted human tau (converted)): 2.4 nM
effect on [18F]Co. No. 1 binding pattern in human AD slices [1]: entirely blocked
IC50 ([4]; displacement of [3H]-AV-45 (10 nM), read-out: pIC50, binding to extracted human amyloid-beta aggregates (converted)): 6610 nM
Ki ([4]; displacement of [3H]-AV-45, read-out: Ki corresponding to pIC50, extracted human amyloid-beta aggregates (converted)): 3200 nM
inhibition of [18F]Co. No. 1 binding [5]: 99%

Cc1cnc(Nc2ccc3cnccc3c2)cc1[18F] [[^18F]Co. No. 1]
brain wash-out [6]: rapid wash-out
distribution over brain regions [6]: homogeneous distribution
initial brain uptake, SUV value [6]: ~5.4
tracer binding to tau pathology in human AD slices [1]: strong binding
tracer binding in digital autoradiography ([5]; 7.4 kBq/500 μL per slice, human AD slices): high and selective binding to cortical tau-rich regions
SUV value at 60 min p.i. (brain wash-out) [7]: 0.2
initial brain uptake, high intensity SUV value in the brain [7]: ~2.0
effect of pre-treatment / chase with cold compound on brain uptake [7]: No self-blocking or self-chase effect

C#CCN(C)CCCOc1ccc(Cl)cc1Cl [clorgiline, reference compound]
effect on [18F]Co. No. 1 binding pattern in human AD slices [1]: maintained

Cl.FCCCOc1ccc(Nc2ccc3cnccc3c2)nc1
melting point: 249.3 °C

FCCc1ccc(Nc2ccc3cnccc3c2)nc1 [Co. No. 3]
melting point: 208.5 °C

[18F]c1ccc(-c2ccc3c(c2)[nH]c2ccncc23)cn1 [[^18F]T807, reference compound]
brain wash-out [6]: slower
initial brain uptake, SUV value [6]: ~1.3
SUV value at 60 min p.i. (brain wash-out) [7]: 0.4
initial brain uptake, high intensity SUV value in the brain [7]: ~1.8
effect of pre-treatment / chase with cold compound on brain uptake [7]: Lower brain uptake during the baseline scan

CN(CCF)c1ccc(Nc2ccc3cnccc3c2)nc1 [Co. No. 6]
melting point: 146.3 °C

Cl.FCCCNc1ccc(Nc2ccc3cnccc3c2)nc1
melting point: 285.1 °C

Cc1ccc(Nc2ccc3cnccc3c2)nc1F [Co. No. 2]
melting point: 203.3 °C

CNc1ccc(-c2ccc3cc(OC[C@H](O)CF)ccc3n2)cn1 [THK-5351, reference compound]
blocking of [3H]-THK-5351 binding to MAO-rich human tissue [2]: self-blocked

FCCNc1ccc(Nc2ccc3cnccc3c2)nc1 [Co. No. 5]
melting point: 191.4 °C

FCOc1ccc(Nc2ccc3cnccc3c2)nc1 [Co. No. 4]
melting point: 173.1 °C

FCCOc1ccc(Nc2ccc3cnccc3c2)nc1 [Co. No. 9]
melting point: 104.6 °C

FCCC1CCN(c2ccn3c(n2)nc2ccccc23)CC1 [T808]
Kd [8]: 22 nM
selectivity for tau over Aβ aggregates [8]: 27 fold
inhibition of [18F]Co. No. 1 binding [5]: 99%

Source: patent US12006302B2, “Tau PET imaging ligands” (Janssen Pharmaceutica NV, priority 2016, dated 2024)
